From patent US9249129B2, “Morpholino substituted urea derivatives as mTOR inhibitors” (CELLZOME LIMITED, priority 2010, dated 2016)

Key:
Assay in all cases: kinobeads assay with mass spectrometry detection of kinases (kinase selectivity profile)
Type in all cases: binding
kinases (kinome) [1] = biological target: T1, kinases (kinome) (Homo sapiens, UniProt Q14680); conditions: MELK (CAMK), IPI00006471
T1 construct: determined in kinobeads assays with mass spectrometry detection of kinases as described previously; endogenous in cells; host or cells: cell lysate
T1 sequence (Q14680 whole entry): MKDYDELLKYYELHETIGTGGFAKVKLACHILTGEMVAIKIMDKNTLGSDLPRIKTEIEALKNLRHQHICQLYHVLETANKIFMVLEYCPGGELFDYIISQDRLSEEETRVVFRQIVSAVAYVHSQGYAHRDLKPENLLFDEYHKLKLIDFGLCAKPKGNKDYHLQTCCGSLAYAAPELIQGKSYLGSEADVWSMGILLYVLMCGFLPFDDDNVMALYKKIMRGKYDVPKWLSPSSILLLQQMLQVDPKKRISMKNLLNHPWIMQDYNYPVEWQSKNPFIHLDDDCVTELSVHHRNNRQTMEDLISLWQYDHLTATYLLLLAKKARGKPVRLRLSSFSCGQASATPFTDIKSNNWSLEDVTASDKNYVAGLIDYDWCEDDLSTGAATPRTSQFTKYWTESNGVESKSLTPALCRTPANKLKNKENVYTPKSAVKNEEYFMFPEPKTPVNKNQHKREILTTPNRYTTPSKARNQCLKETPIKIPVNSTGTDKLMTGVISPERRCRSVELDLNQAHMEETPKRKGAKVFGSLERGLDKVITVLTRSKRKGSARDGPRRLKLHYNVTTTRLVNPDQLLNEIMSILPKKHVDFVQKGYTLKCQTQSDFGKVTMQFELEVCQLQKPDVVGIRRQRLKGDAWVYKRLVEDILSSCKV
Text: (§1) The protein kinase complement of the human genome (the kinome) was described previously (Manning et al., 2002. Science 298(5600):1912-1934). Sequence accession numbers are defined by the International Protein Index (IPI) (Kersey et al., 2004. Proteomics 4(7):1985-1988).

kinases (kinome) [2] = biological target: T2, kinases (kinome) (Homo sapiens, UniProt P19784); conditions: CK2a2 (Other), IPI00020602
T2 construct: determined in kinobeads assays with mass spectrometry detection of kinases as described previously; endogenous in cells; host or cells: cell lysate
Text: as §1

kinases (kinome) [3] = biological target: T3, kinases (kinome) (Homo sapiens, UniProt P42680); conditions: TEC (TK), IPI00000878
T3 construct: determined in kinobeads assays with mass spectrometry detection of kinases as described previously; endogenous in cells; host or cells: cell lysate
T3 sequence (P42680 1-631): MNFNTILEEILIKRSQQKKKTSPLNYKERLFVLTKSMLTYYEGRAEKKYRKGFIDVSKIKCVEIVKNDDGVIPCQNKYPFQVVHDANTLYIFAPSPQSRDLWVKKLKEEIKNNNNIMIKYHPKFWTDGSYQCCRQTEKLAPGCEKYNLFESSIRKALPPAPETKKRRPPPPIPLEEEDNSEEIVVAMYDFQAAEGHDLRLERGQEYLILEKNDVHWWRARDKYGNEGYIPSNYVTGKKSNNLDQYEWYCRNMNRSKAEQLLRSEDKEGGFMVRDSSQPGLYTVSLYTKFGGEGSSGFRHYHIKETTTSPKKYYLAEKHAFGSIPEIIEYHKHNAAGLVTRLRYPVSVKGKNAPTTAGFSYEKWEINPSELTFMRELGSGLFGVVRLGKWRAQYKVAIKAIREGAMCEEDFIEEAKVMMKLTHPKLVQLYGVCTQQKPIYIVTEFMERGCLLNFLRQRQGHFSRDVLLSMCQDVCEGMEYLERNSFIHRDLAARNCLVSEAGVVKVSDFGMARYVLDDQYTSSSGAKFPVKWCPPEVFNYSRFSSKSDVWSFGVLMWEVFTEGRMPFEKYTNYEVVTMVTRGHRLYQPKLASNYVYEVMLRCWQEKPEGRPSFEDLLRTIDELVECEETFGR
Text: as §1

kinases (kinome) [4] = biological target: T4, kinases (kinome) (Homo sapiens, UniProt P29323); conditions: EphB2 (TK), IPI00021275
T4 construct: determined in kinobeads assays with mass spectrometry detection of kinases as described previously; endogenous in cells; host or cells: cell lysate
T4 sequence (P29323 19-1055): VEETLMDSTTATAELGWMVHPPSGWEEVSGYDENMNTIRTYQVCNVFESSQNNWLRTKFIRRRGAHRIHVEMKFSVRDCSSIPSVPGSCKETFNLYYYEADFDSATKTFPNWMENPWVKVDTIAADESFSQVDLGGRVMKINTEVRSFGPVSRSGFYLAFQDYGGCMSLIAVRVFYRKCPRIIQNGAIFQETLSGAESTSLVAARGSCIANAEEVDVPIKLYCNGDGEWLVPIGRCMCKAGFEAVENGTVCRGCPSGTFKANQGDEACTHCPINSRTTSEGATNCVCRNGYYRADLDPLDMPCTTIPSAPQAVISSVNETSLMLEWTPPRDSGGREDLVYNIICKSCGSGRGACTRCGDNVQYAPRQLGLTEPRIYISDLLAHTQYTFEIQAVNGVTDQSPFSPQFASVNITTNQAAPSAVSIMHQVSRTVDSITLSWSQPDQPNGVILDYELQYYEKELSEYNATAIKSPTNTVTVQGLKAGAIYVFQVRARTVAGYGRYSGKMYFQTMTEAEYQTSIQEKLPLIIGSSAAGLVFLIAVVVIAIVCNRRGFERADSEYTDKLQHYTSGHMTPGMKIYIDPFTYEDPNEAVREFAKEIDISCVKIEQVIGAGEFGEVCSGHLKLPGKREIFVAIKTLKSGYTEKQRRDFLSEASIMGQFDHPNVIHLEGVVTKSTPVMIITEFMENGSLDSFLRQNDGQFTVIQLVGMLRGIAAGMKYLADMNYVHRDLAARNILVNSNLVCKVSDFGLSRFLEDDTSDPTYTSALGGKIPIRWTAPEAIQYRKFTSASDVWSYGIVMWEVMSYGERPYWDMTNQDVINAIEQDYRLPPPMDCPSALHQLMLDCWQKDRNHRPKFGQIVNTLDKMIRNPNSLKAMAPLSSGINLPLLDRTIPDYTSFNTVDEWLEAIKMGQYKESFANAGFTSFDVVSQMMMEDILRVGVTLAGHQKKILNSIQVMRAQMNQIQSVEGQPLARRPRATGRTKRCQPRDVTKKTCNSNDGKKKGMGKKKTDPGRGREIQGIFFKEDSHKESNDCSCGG
Text: as §1

kinases (kinome) [5] = biological target: kinases (kinome) (Homo sapiens, UniProt Q15418); conditions: RSK3 (AGC), IPI00477982
Chain of kinases (kinome) (Homo sapiens, UniProt Q15418) (Q15418 whole entry): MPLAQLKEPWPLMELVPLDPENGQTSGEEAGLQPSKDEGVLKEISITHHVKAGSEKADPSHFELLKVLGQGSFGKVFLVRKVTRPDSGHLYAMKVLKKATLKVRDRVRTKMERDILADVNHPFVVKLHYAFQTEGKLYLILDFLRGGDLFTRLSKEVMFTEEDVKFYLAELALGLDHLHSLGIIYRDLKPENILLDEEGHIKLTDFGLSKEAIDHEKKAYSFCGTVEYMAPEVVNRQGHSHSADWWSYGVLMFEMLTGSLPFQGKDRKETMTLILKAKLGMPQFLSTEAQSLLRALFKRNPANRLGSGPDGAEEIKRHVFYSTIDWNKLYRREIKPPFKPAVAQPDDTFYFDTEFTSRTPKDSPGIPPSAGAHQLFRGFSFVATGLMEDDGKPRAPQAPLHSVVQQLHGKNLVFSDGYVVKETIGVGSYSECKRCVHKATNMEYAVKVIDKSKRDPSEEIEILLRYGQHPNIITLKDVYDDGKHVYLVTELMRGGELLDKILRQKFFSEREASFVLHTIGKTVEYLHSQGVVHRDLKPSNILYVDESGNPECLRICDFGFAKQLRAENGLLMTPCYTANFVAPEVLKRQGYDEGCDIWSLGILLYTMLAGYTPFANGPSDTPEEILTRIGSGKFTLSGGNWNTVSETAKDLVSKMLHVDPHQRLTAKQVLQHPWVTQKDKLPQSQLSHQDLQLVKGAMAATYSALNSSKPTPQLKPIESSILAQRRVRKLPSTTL
Text: as §1

kinases (kinome) [6] = biological target: T5, kinases (kinome) (Homo sapiens, UniProt P41240); conditions: CSK (TK), IPI00013212
T5 construct: determined in kinobeads assays with mass spectrometry detection of kinases as described previously; endogenous in cells; host or cells: cell lysate
T5 sequence (P41240 whole entry): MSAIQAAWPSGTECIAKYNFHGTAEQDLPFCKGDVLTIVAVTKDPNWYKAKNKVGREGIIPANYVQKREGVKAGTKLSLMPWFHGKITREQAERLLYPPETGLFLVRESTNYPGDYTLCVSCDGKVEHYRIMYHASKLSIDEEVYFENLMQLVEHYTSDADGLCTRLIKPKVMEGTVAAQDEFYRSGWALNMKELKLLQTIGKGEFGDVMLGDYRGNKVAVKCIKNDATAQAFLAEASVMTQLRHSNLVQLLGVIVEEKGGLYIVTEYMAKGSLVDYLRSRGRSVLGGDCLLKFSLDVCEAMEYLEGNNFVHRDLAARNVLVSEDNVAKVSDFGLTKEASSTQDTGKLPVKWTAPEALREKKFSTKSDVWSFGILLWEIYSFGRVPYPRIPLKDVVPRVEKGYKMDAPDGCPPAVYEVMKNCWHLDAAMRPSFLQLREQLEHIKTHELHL
Text: as §1

kinases (kinome) [7] = biological target: T6, kinases (kinome) (Homo sapiens, UniProt Q2M2I8); conditions: AAK1 (Other), IPI00916402
T6 construct: determined in kinobeads assays with mass spectrometry detection of kinases as described previously; endogenous in cells; host or cells: cell lysate
T6 sequence (Q2M2I8 whole entry): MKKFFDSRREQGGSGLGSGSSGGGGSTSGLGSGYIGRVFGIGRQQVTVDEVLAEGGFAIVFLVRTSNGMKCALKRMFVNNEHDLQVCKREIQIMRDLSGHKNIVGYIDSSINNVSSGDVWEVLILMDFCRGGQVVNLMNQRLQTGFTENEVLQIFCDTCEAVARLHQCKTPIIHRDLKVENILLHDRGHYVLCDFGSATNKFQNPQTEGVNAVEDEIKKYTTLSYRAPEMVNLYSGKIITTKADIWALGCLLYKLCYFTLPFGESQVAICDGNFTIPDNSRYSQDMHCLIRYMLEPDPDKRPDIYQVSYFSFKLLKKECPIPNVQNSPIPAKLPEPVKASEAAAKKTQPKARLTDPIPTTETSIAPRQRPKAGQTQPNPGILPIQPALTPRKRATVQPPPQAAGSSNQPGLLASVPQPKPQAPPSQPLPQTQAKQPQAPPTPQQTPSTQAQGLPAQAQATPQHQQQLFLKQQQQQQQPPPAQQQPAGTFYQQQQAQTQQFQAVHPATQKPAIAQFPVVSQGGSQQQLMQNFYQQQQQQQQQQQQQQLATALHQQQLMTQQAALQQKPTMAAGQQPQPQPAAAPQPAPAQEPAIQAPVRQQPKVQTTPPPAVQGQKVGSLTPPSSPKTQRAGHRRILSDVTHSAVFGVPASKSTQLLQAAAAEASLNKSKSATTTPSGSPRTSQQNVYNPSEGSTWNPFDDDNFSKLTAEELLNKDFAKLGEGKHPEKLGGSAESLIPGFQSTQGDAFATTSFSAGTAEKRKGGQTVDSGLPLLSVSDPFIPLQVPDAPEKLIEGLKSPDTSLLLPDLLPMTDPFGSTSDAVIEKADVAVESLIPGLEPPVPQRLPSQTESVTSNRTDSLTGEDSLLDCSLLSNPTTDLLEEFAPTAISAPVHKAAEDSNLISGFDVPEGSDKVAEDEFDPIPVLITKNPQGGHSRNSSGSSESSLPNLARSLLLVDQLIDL
Text: as §1

kinases (kinome) [8] = biological target: T7, kinases (kinome) (Homo sapiens, UniProt Q9UBF8); conditions: PIK4Cb (Lipid Kinase), IPI00641770
T7 construct: determined in kinobeads assays with mass spectrometry detection of kinases as described previously; endogenous in cells; host or cells: cell lysate
T7 sequence (Q9UBF8 whole entry): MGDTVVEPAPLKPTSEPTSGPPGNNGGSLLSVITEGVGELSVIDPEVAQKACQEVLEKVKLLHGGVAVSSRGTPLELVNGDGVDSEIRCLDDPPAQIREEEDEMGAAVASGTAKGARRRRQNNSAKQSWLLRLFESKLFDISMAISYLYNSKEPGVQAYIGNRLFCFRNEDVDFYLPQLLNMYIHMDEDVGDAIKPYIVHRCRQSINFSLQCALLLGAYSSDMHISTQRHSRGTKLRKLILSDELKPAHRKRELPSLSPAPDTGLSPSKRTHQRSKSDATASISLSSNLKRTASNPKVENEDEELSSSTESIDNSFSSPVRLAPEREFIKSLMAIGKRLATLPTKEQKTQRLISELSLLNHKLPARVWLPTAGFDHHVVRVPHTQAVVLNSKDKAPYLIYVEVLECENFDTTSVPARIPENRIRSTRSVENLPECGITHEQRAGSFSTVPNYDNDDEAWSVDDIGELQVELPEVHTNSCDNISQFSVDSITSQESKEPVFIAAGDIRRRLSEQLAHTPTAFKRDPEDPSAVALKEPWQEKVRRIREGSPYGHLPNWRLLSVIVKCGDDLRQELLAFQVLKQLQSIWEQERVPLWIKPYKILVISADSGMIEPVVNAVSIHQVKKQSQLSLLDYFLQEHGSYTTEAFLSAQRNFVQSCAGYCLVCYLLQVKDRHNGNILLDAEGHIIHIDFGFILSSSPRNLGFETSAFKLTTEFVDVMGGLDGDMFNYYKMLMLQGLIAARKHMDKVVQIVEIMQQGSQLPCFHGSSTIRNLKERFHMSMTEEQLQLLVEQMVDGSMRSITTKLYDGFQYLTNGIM
Text: as §1

kinases (kinome) [9] = biological target: T8, kinases (kinome) (Homo sapiens, UniProt Q9NYL2); conditions: ZAK (TKL), IPI00329638
T8 construct: determined in kinobeads assays with mass spectrometry detection of kinases as described previously; endogenous in cells; host or cells: cell lysate
T8 sequence (Q9NYL2 whole entry): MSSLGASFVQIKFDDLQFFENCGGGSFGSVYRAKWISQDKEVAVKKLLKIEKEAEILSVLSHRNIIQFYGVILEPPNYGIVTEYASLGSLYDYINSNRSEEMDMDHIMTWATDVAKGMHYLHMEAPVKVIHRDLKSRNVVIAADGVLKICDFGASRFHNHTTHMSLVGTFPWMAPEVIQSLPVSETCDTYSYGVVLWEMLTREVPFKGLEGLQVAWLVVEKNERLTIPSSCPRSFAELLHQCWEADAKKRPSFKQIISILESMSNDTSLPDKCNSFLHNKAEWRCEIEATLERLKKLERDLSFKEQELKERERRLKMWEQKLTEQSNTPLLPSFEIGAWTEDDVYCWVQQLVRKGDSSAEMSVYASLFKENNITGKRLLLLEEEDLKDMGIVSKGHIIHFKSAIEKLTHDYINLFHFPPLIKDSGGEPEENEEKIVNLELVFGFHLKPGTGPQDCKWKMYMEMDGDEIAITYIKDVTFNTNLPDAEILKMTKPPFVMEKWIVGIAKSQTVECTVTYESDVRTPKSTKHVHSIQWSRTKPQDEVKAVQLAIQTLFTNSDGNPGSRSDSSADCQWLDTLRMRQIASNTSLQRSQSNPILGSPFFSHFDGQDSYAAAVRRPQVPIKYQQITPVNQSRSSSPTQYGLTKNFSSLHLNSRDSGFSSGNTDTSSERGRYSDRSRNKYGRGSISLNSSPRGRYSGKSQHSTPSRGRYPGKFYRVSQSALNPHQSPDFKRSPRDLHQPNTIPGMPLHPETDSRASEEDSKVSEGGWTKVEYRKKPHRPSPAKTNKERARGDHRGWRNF
Text: as §1

kinases (kinome) [10] = biological target: T9, kinases (kinome) (Homo sapiens, UniProt Q96RR4); conditions: CaMKK2 (Other), IPI00290239
T9 construct: determined in kinobeads assays with mass spectrometry detection of kinases as described previously; endogenous in cells; host or cells: cell lysate
T9 sequence (Q96RR4 whole entry): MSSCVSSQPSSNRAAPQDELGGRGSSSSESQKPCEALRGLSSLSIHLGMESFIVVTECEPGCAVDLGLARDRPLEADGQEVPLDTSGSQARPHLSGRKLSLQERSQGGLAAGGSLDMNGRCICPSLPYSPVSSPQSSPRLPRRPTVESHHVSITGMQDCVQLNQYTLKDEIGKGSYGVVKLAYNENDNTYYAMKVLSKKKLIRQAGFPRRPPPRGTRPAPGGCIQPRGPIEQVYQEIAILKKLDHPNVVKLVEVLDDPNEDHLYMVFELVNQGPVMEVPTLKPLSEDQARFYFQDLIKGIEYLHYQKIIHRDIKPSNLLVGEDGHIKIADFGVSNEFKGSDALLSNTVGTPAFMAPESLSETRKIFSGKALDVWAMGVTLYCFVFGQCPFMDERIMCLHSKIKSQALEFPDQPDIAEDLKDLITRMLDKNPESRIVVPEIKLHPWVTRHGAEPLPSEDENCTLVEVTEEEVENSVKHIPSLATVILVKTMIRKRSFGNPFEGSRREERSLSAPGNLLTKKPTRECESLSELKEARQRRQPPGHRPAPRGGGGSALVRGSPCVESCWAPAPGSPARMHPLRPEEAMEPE
Text: as §1

Measured: IC50

C[C@H]1COCCN1c1nc(-c2ccc(NC(=O)NC3CC3)cc2)cc(-c2ccccc2S(C)(=O)=O)n1 [Example 4, (S)-1-cyclopropyl-3-(4-(2-(3-methylmorpholino)-6-(2-(methylsulfonyl)phenyl)pyrimidin-4-yl)phenyl)urea]
> 10 µM: all assays above

C[C@H]1COCCN1c1cc(-c2ccccc2S(C)(=O)=O)nc(-c2ccc(NC(=O)NC3CC3)cc2)n1 [Example 6, (S)-1-cyclopropyl-3-(4-(4-(3-methylmorpholino)-6-(2-(methylsulfonyl)phenyl)pyrimidin-2-yl)phenyl)urea]
> 10 µM: all assays above

CCNC(=O)Nc1ccc(-c2cc(-c3ccccc3C#N)nc(N3CCOC[C@@H]3C)n2)cc1 [Example 8, (S)-1-(4-(6-(2-cyanophenyl)-2-(3-methylmorpholino)pyrimidin-4-yl)phenyl)-3-ethylurea]
> 10 µM: all assays above

C[C@H]1COCCN1c1nc(-c2ccc(NC(=O)NC3CC3)cc2)cc(-c2cc(F)ccc2S(C)(=O)=O)n1 [Example 40, (S)-1-cyclopropyl-3-(4-(6-(5-fluoro-2-(methylsulfonyl)phenyl)-2-(3-methylmorpholino)pyrimidin-4-yl)phenyl)urea]
> 10 µM: all assays above

C[C@H]1COCCN1c1cc(-c2ccccn2)nc(-c2ccc(NC(=O)NCCO)cc2)n1 [Example 43, (S)-1-(2-hydroxyethyl)-3-(4-(4-(3-methylmorpholino)-6-(pyridin-2-yl)pyrimidin-2-yl)phenyl)urea]
> 10 µM: all assays above

C[C@H]1COCCN1c1nc(-c2ccc(NC(=O)NC3CC3)cc2)cc(-c2cccnc2S(C)(=O)=O)n1 [Example 46, (S)-1-cyclopropyl-3-(4-(2-(3-methylmorpholino)-6-(2-(methylsulfonyl)pyridin-3-yl)pyrimidin-4-yl)phenyl)urea]
> 10 µM: all assays above

C[C@H]1COCCN1c1nc(-c2ccc(NC(=O)N[C@H]3CCC[C@@H]3O)cc2)cc(-c2cc(F)ccc2S(C)(=O)=O)n1 [Example 76, 1-(4-(6-(5-fluoro-2-(methylsulfonyl)phenyl)-2-((S)-3-methylmorpholino)pyrimidin-4-yl)phenyl)-3-((1S,2S)-2-hydroxycyclopentyl)urea]
> 10 µM: all assays above
